Measurements: patent US20260151486A1, “PRESSURIZED NANOEMULSION” (BIOFRONTERA BIOSCIENCE GMBH, priority 2023, published 2026)

Experiments:
[1] = ALA content over storage time in nanoemulsion formulation; assay type: physicochemical; conditions: in BF200 with PX=2%, 3% 5-ALA; after 36 months storage at 2-25° C.
Protocol: Nanoemulsion formulations BF200 PX=2% glass and BF200 PX=2% foam were prepared as described in Example 5. The nanoemulsion formulations were stored at 25° C. and 2-8° C. The content of ALA was determined at 0 (starting point) and various time points during the 36 months storage period.

[2] = TC content over storage time in nanoemulsion formulation; assay type: physicochemical; conditions: in BF220 with PX=4%, 0.1% TC
Protocol: Nanoemulsion formulations BF220 TC=0.1% glass and BF220 TC=0.1% foam were prepared as described in Example 6. The nanoemulsion formulations were stored at 2-8° C. and 25° C. The content of TC was determined at 0 (starting point) and various time points up to 48 months storage period.

[3] = room temperature; cited from earlier work

Structure (SMILES) | ALA content [1] | TC content ([2]; after 6 months at 25° C.) | TC content ([2]; after 48 months storage at 2-8° C.) | stability in aqueous formulations [3]
NCC(=O)CCC(=O)O [ALA, 5-aminolevulinic acid] | at least 90% | – | – | –
C=CC[C@@H]1/C=C(\C)C[C@H](C)C[C@H](OC)[C@H]2O[C@@](O)(C(=O)C(=O)N3CCCC[C@H]3C(=O)O[C@H](/C(C)=C/[C@@H]3CC[C@@H](O)[C@H](OC)C3)[C@H](C)[C@@H](O)CC1=O)[C@H](C)C[C@@H]2OC [TC, Tacrolimus] | – | at least 95% | at least 95% | approx. 90 days
